For 22 compounds, IC50 results are on record in US20240182481A1 (Tango Therapeutics, Inc., priority 2021, published 2024).

Where two headings read alike, the source gives them in different places.

One assay deals with USP1-UAF1 (Homo sapiens, UniProt O94782). The assay is described as follows: Ubiquitin Rhodamine assay for USP1-UAF1 activity. The assay is classed as biochemical. As for the experimental part:
Certain compounds of the disclosure were assessed for USP1-UAF1 activity in a Ubiquitin Rhodamine assay as described in Example 135.

For a further assay, the system named is monoubiquitinated PCNA. The assay is described as follows: AlphaLISA assay measuring monoubiquitinated PCNA in MDA-MB-436. The format is cell-based. The following applies: Homo sapiens, read-out: Alpha LISA IC50. From the text: Table 1 also indicates IC50 values for exemplary compounds in an AlphaLISA assay measuring monoubiquitinated PCNA in a BRCA1 mutant cell line (MDA-MB-436; column 7).

Assay [1] concerns HCC1954 (BRCA1 WT) cell line. Description: Viability assay in BRCA1 WT cell line HCC1954. The assay is classed as cell-based. The following applies: Homo sapiens, read-out: HCC 1954 IC50 rel IC50. From the text: (§1) Table 1 also indicates IC50 values in a viability assay for a non-isogenic pair of BRCA1 mutant (column 5—MDA-MB-436) and BRCA1 WT (column 6—HCC1954) cell lines. These values indicate the effect of treatment with compound on cell survival.

Assay [2] relates to MDA-MB-436 (BRCA1 mutant) cell line. Description: Viability assay in BRCA1 mutant cell line MDA-MB-436. The format is cell-based. The following applies: Homo sapiens, BRCA1 mutant MDA-MB-436, read-out: MDA-MB-436 rel IC50.
Text: as §1

Chain of USP1-UAF1 (O94782 whole entry): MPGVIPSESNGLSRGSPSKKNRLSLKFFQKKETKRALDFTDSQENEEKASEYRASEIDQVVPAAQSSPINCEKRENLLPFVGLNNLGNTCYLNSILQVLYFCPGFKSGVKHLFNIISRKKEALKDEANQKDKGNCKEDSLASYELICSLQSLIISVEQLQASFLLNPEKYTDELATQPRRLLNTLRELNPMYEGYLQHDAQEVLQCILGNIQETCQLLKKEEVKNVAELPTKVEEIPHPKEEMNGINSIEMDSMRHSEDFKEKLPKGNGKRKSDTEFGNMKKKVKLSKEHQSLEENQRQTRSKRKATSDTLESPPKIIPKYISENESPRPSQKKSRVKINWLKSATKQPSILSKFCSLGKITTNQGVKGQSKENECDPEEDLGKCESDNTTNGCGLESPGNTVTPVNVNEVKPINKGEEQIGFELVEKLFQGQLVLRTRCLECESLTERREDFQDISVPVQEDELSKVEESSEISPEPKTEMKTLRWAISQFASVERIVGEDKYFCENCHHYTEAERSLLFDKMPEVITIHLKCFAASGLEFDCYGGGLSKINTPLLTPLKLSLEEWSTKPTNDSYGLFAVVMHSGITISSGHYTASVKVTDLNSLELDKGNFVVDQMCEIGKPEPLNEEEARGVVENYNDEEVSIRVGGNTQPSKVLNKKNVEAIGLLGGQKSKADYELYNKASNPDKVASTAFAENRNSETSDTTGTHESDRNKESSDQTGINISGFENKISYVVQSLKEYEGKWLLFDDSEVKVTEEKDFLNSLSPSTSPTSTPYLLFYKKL
Chain of USP1-UAF1 (Q8TAF3 whole entry partner): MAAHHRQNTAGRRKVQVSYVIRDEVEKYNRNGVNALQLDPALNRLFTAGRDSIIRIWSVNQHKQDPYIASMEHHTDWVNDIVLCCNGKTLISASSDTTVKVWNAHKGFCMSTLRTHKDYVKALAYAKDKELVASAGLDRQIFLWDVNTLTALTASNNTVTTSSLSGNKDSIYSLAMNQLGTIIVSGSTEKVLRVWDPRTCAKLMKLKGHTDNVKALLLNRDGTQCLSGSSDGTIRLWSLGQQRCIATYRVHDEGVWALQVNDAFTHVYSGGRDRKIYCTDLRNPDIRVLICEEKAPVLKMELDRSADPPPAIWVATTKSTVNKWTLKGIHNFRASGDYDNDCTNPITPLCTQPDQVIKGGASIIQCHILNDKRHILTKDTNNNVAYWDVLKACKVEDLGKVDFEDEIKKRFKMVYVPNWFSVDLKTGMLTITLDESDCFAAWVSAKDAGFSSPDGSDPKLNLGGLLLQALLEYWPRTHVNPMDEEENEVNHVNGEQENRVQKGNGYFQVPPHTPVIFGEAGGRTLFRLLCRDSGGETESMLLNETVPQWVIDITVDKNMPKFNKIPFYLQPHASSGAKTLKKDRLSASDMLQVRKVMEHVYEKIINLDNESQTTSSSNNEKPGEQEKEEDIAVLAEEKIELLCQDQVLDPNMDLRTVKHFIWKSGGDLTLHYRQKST

Regarding `COc1ncnc(C2CC2)c1-c1ncc2[nH]cc(C3(c4ccc(-c5nc(C(F)(F)F)cn5C)cc4)CC3)c2n1` [Compound 47, 2-(4-cyclopropyl-6-methoxy-pyrimidin-5-yl)-7-[1-[4-[1-methyl-4-(trifluoromethyl)imidazol-2-yl]phenyl]cyclopropyl]-5H-pyrrolo[3,2-d]pyrimidine], the IC50 was 30 to 100 nM at USP1-UAF1; 100 to 250 nM in the assay with monoubiquitinated PCNA; at least 10 µM in assay [1]; 250 to 10000 nM in assay [2] (MDA-MB-436, viability).

For `CC(C)n1cc(C(F)(F)F)nc1-c1ccc(Cc2c[nH]c3cnc(-c4c(OC(F)F)ncnc4C4CC4)nc23)cc1` [Compound 132], the IC50 on USP1-UAF1 is below 30 nM; in the assay with monoubiquitinated PCNA it was below 100 nM; in assay [1], at least 10 µM; in assay [2] (MDA-MB-436, viability), below 100 nM.

As for `COc1ncnc(C2CC2)c1-c1ncc2c(n1)c(Sc1ccc(-c3nc(C(F)(F)F)cn3C)cc1)cn2C` [Compound 166], the IC50 was 100 to 10000 nM on USP1-UAF1; 250 to 10000 nM with monoubiquitinated PCNA; at least 10 µM in assay [1]; 100 to 250 nM in assay [2] (MDA-MB-436, viability).

With `[2H]C([2H])([2H])n1cc(C(F)(F)F)nc1-c1ccc(Cc2n[nH]c3cnc(-c4c(OC)ncnc4C4CC4)nc23)cc1` [Compound 97, 5-(4-cyclopropyl-6-methoxy-pyrimidin-5-yl)-3-[[4-[1-(trideuteriomethyl)-4-(trifluoromethyl)imidazol-2-yl]phenyl]methyl]-1H-pyrazolo[4,3-d]pyrimidine], the half-maximal inhibitory concentration (IC50) against USP1-UAF1 was below 30 nM; in the assay with monoubiquitinated PCNA, below 100 nM; in assay [1], at least 10 µM; in assay [2] (MDA-MB-436, viability), below 100 nM.

In the case of `CC(C)Oc1ncnc(C2CC2)c1-c1ncc2[nH]nc(Cc3ccc(-c4nc(C(F)(F)F)cn4C)cc3)c2n1` [Compound 102], the concentration for half-maximal inhibition (IC50) at USP1-UAF1 is below 30 nM; with monoubiquitinated PCNA, 100 to 250 nM; in assay [1], at least 10 µM; in assay [2] (MDA-MB-436, viability) it was 100 to 250 nM.

As for `CC(C)c1ccccc1-c1cc2c(Nc3ccc(-c4nc(C(F)(F)F)cn4C)cc3)c[nH]c2cn1` [Compound 17], the concentration for half-maximal inhibition (IC50) against USP1-UAF1 was 100 to 10000 nM; in the assay with monoubiquitinated PCNA, below 100 nM; in assay [1] it was 0.25 to 10 µM; in assay [2] (MDA-MB-436, viability), 250 to 10000 nM.

In the case of `COc1ncnc(C2CC2)c1-c1ncc2[nH]cc(Cc3ccc(-n4nc(C(F)(F)F)cc4C)c(F)c3)c2n1` [Compound 88, 2-(4-cyclopropyl-6-methoxy-pyrimidin-5-yl)-7-[[3-fluoro-4-[5-methyl-3-(trifluoromethyl)pyrazol-1-yl]phenyl]methyl]-5H-pyrrolo[3,2-d]pyrimidine], the concentration for half-maximal inhibition (IC50) at USP1-UAF1 was below 30 nM; in the assay on monoubiquitinated PCNA, below 100 nM; in assay [1] it was at least 10 µM; in assay [2] (MDA-MB-436, viability) it was below 100 nM.

With `COc1ncnc(C2CC2)c1-c1ncc2nn(C(C)=O)c(Cc3ccc(-c4nc(C(F)(F)F)cn4C)cc3)c2n1` [Compound 101, 1-(5-(4-cyclopropyl-6-methoxypyrimidin-5-yl)-3-(4-(1-methyl-4-(trifluoromethyl)-1H-imidazol-2-yl)benzyl)-2H-pyrazolo[4,3-d]pyrimidin-2-yl)ethan-1-one], the half-maximal inhibitory concentration (IC50) on USP1-UAF1 was 30 to 100 nM; with monoubiquitinated PCNA, below 100 nM; in assay [1] it was at least 10 µM; in assay [2] (viability) it was below 100 nM.

`COc1ncnc(C2CC2)c1-c1ncc2c(n1)c(Cc1ccc(-n3nc(C#N)cc3C)cc1)cn2C` [Compound 107, 1-[4-[[2-(4-cyclopropyl-6-methoxy-pyrimidin-5-yl)-5-methyl-pyrrolo[3,2-d]pyrimidin-7-yl]methyl]phenyl]-5-methyl-pyrazole-3-carbonitrile]: the IC50 against USP1-UAF1 was 30 to 100 nM; with monoubiquitinated PCNA, below 100 nM; in assay [1] it was at least 10 µM; in assay [2] (MDA-MB-436, viability), below 100 nM.

On to `COc1ncnc(C2CC2)c1-c1cc2c(Oc3ccc(-c4nc(C(F)(F)F)cn4C)cc3)c[nH]c2cn1` [Compound 167, 5-(4-cyclopropyl-6-methoxy-pyrimidin-5-yl)-3-[4-[1-methyl-4-(trifluoromethyl)imidazol-2-yl]phenoxy]-1H-pyrrolo[2,3-c]pyridine], for which the IC50 is 30 to 100 nM against USP1-UAF1; below 100 nM in the assay with monoubiquitinated PCNA; at least 10 µM in assay [1]; below 100 nM in assay [2] (MDA-MB-436, viability).

Consider `CCCOc1ncccc1-c1ncc2[nH]cc(Cc3ccc(-c4nc(C(F)(F)F)cn4C)cc3)c2n1` [Compound 34, 7-[[4-[1-methyl-4-(trifluoromethyl)imidazol-2-yl]phenyl]methyl]-2-(2-propoxy-3-pyridyl)-5H-pyrrolo[3,2-d]pyrimidine], for which the concentration for half-maximal inhibition (IC50) against USP1-UAF1 was 30 to 100 nM; in the assay on monoubiquitinated PCNA it was 100 to 250 nM; in assay [1], at least 10 µM; in assay [2] (MDA-MB-436, viability) it was 100 to 250 nM.

As to `Cn1cc(C(F)(F)F)nc1-c1ccc(Cc2c[nH]c3cnc(-c4cccnc4C4CC4)cc23)cc1` [Compound 66, 2-cyclopropyl-3-[3-([4-[1-methyl-4-(trifluoromethyl)imidazol-2-yl]phenyl]methyl)-1H-pyrrolo[2,3-c]pyridin-5-yl]pyridine], the half-maximal inhibitory concentration (IC50) on USP1-UAF1 is 30 to 100 nM; in the assay on monoubiquitinated PCNA, below 100 nM; in assay [1] it was 0.25 to 10 µM; in assay [2] (MDA-MB-436, viability), 100 to 250 nM.

Take `COc1ncnc(C2CC2)c1-c1ncc2[nH]cc(Cc3ccc(-c4nc(C(F)(F)F)cn4C4CC4)cc3)c2n1` [Compound 81, 2-(4-cyclopropyl-6-methoxy-pyrimidin-5-yl)-7-[[4-[1-cyclopropyl-4-(trifluoromethyl)imidazol-2-yl]phenyl]methyl]-5H-pyrrolo[3,2-d]pyrimidine]: the IC50 at USP1-UAF1 was below 30 nM; with monoubiquitinated PCNA, below 100 nM; in assay [1] it was 0.25 to 10 µM; in assay [2] (MDA-MB-436, viability), below 100 nM.

Consider `Cn1cc(C(F)(F)F)nc1-c1ccc(Cc2n[nH]c3cnc(-c4c(C5CC5)ccnc4C4CC4)nc23)cc1` [Compound 174], for which the IC50 on USP1-UAF1 is below 30 nM; in the assay on monoubiquitinated PCNA, 100 to 250 nM; in assay [1] it was at least 10 µM; in assay [2] (MDA-MB-436, viability) it was 100 to 250 nM.

As to `Cn1cc(C(F)(F)F)nc1-c1ccc(Cc2c(CN)[nH]c3cnc(-c4cccnc4C4CC4)nc23)cc1` [Compound 186], the IC50 on USP1-UAF1 lay in the range of 30 to 100 nM; in the assay on monoubiquitinated PCNA, 100 to 250 nM; in assay [1] it was 0.25 to 10 µM; in assay [2] (MDA-MB-436, viability), 100 to 250 nM.

Regarding `COc1ncnc(C2CC2)c1-c1cc2c(Cc3ccc(-c4nc(C(F)(F)F)cn4C)cc3)c[nH]c2cn1` [Compound 23, 5-(4-cyclopropyl-6-methoxy-pyrimidin-5-yl)-3-[[4-[1-methyl-4-(trifluoromethyl)imidazol-2-yl]phenyl]methyl]-1H-pyrrolo[2,3-c]pyridine], the IC50 is below 30 nM at USP1-UAF1; below 100 nM in the assay on monoubiquitinated PCNA; 0.25 to 10 µM in assay [1]; below 100 nM in assay [2] (MDA-MB-436, viability).

On to `Cn1cc(C(F)(F)F)nc1-c1ccc(Cc2c[nH]c3cnc(-c4c(C5CC5)ncnc4C4CC4)nc23)cc1` [Compound 193, 2-(4,6-dicyclopropylpyrimidin-5-yl)-7-[[4-[1-methyl-4-(trifluoromethyl)imidazol-2-yl]phenyl]methyl]-5H-pyrrolo[3,2-d]pyrimidine], for which the IC50 is below 30 nM against USP1-UAF1; below 100 nM with monoubiquitinated PCNA; at least 10 µM in assay [1]; below 100 nM in assay [2] (MDA-MB-436, viability).

Consider `COc1ncnc(C2CC2)c1-c1ncc2[nH]nc(Cc3ccc(-n4nc(C(F)(F)F)cc4OC)cc3)c2n1` [Compound 140, 5-(4-cyclopropyl-6-methoxy-pyrimidin-5-yl)-3-[[4-[5-methoxy-3-(trifluoromethyl)pyrazol-1-yl]phenyl]methyl]-1H-pyrazolo[4,3-d]pyrimidine], for which the concentration for half-maximal inhibition (IC50) on USP1-UAF1 was below 30 nM; in the assay with monoubiquitinated PCNA, 100 to 250 nM; in assay [1], 0.25 to 10 µM; in assay [2] (MDA-MB-436, viability) it was below 100 nM.

For the compound `COc1ncnc(C2CC2)c1-c1ncc2[nH]cc(Cc3ccc(-c4nc(C(F)(F)F)cn4C)c(F)c3)c2n1` [Compound 153, 2-(4-cyclopropyl-6-methoxy-pyrimidin-5-yl)-7-[[3-fluoro-4-[1-methyl-4-(trifluoromethyl)imidazol-2-yl]phenyl]methyl]-5H-pyrrolo[3,2-d]pyrimidine], the 50% inhibitory concentration (IC50) was below 30 nM against USP1-UAF1; below 100 nM with monoubiquitinated PCNA; at least 10 µM in assay [1]; below 100 nM in assay [2] (MDA-MB-436, viability).

In the case of `COc1ncnc(C2CC2)c1-c1ncc2[nH]c(C)c(Cc3ccc(-c4nc(C(F)(F)F)cn4C)cc3)c2n1` [Compound 188], the concentration for half-maximal inhibition (IC50) at USP1-UAF1 was below 30 nM; in the assay on monoubiquitinated PCNA it was below 100 nM; in assay [1] it was at least 10 µM; in assay [2] (MDA-MB-436, viability) it was below 100 nM.

On to `CCn1cc(C(F)(F)F)nc1-c1ccc(Cc2c3nc(-c4c(OC)ncnc4C4CC4)ncc3nn2C)cc1` [Compound 139, 5-(4-cyclopropyl-6-methoxypyrimidin-5-yl)-3-(4-(1-ethyl-4-(trifluoromethyl)-1H-imidazol-2-yl)benzyl)-2-methyl-2H-pyrazolo[4,3-d]pyrimidine], for which the IC50 is 30 to 100 nM against USP1-UAF1; below 100 nM with monoubiquitinated PCNA; at least 10 µM in assay [1]; below 100 nM in assay [2] (MDA-MB-436, viability).

With `COc1ncnc(C2CC2)c1-c1ncc2[nH]cc(Oc3ccc(-c4nc(C(F)(F)F)cn4C)cc3)c2n1` [Compound 69, 2-(4-cyclopropyl-6-methoxy-pyrimidin-5-yl)-7-[4-[1-methyl-4-(trifluoromethyl)imidazol-2-yl]phenoxy]-5H-pyrrolo[3,2-d]pyrimidine], the IC50 on USP1-UAF1 was 100 to 10000 nM; in the assay on monoubiquitinated PCNA, 250 to 10000 nM; in assay [1], at least 10 µM; in assay [2] (MDA-MB-436, viability) it was 250 to 10000 nM.
